Each structure is given as a SMILES string.

This is an account of results in publication PMC11167047 (Cell Death Discovery, 2024).

One assay deals with T1, CDK2/cyclin A2 (Homo sapiens, UniProt P24941).
T1 construct: purchased BPS Bioscience #79599
In words: luminescence-based kinase activity assay. Conditions: result in words. It counts as biochemical. The protocol: (§1) The activity of specific CDKs and their cyclins was assessed using CDK Kits from BPS Bioscience (CDK1/cyclin B1 #79597; CDK2/cyclin A2 #79599; CDK9/cyclin T #79628). The assay was conducted following the manufacturer’s guidelines. In summary, the CDK/cyclin complexes, as purified recombinant enzymes, were allowed to react with CDK substrate peptide, ATP, and kinase buffer in the presence or absence of meriolins. The reaction was initiated by adding diluted CDK/cyclin enzyme to the wells and incubating for 45 min at 30 °C. After the incubation, the Kinase-Glo-Max® reagent was added as a detection reagent, and the resulting luciferase reaction produced luminescence, which was inversely correlated with the kinase activity.
(§2) The luminescent CDK/cyclin assay is a method that quantifies the amount of ATP remaining in the solution after a kinase reaction. Luminescence was measured using the Synergy Mix microplate reader as an endpoint measurement. Data analyses were performed according to the manufacturer’s instructions, and statistical analysis was carried out using one-way ANOVA, with corrections made by Bonferroni’s multiple comparison test. The significance level was indicated as ****p ≤ 0.0001.

In another assay the target is T2, CDK9/cyclin T (Homo sapiens, UniProt P50750).
T2 construct: purchased BPS Bioscience #79628
T2 sequence (P50750 whole entry): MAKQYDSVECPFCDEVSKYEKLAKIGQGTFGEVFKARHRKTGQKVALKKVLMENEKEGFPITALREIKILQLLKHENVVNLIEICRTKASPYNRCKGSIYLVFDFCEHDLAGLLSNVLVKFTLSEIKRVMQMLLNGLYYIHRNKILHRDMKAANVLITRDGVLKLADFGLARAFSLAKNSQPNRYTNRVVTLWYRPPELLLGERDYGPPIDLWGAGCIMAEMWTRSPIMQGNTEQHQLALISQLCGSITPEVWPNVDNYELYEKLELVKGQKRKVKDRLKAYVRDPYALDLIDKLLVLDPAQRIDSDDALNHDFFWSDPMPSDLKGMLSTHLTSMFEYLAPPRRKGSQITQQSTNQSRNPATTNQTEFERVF
T2 sequence (O60563 whole entry partner): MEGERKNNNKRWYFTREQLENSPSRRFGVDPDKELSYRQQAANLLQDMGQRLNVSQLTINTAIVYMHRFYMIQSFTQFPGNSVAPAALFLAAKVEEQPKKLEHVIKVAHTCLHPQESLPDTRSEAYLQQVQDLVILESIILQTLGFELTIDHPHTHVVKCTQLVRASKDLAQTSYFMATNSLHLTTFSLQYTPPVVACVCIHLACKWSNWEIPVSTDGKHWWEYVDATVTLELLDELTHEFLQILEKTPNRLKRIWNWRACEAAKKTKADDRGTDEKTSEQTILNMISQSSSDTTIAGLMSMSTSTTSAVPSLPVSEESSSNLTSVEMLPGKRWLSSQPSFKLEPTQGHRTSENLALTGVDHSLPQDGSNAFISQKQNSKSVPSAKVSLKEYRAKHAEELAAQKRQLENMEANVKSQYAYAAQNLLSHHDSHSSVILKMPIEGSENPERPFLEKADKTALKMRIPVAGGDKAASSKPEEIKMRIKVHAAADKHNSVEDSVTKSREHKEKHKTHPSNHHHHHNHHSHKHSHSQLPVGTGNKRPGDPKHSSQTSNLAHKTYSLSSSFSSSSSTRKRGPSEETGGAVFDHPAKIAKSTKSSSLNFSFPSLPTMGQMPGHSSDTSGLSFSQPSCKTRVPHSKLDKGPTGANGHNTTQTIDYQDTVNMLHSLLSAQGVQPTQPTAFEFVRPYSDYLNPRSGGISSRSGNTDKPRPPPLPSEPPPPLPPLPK
In words: luminescence-based kinase activity assay. It counts as biochemical. Conditions: result in words. As to the method:
as §1, §2

The next assay deals with T3, CDK1/cyclin B1 (Homo sapiens, UniProt P06493).
T3 construct: purchased BPS Bioscience #79597
T3 sequence (P06493 whole entry): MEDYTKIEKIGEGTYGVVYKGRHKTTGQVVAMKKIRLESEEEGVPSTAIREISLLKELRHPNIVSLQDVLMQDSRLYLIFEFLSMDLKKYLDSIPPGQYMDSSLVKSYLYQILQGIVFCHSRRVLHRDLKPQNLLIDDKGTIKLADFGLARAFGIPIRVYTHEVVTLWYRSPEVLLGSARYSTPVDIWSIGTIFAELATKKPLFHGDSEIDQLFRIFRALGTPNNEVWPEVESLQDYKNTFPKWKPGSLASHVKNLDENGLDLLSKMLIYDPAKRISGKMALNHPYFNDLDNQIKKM
T3 sequence (P14635 whole entry partner): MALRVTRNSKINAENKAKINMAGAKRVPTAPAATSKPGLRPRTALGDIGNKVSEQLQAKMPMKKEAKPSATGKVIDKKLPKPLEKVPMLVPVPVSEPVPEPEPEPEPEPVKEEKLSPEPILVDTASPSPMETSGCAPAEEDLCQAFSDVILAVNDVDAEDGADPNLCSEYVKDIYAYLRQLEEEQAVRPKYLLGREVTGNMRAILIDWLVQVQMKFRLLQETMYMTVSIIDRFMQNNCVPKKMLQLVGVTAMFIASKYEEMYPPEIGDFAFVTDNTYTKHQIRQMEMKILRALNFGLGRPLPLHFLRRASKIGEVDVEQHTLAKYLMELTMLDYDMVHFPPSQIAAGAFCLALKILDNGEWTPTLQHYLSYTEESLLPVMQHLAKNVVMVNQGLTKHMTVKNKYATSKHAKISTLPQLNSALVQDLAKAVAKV
Description: luminescence-based kinase activity assay. It counts as biochemical. To be noted: result in words. As to the method: as §1, §2

The test system of another assay is HPBALL. To be noted: read-out: IC50 (HPBALL); cytotoxicity, 24 h.
For a further assay, the target named is T4, EPHA6 (Homo sapiens, UniProt Q9UF33).
T4 construct: purchased Reaction Biology Europe GmbH (formerly ProQinase)
T4 sequence (Q9UF33 23-1036): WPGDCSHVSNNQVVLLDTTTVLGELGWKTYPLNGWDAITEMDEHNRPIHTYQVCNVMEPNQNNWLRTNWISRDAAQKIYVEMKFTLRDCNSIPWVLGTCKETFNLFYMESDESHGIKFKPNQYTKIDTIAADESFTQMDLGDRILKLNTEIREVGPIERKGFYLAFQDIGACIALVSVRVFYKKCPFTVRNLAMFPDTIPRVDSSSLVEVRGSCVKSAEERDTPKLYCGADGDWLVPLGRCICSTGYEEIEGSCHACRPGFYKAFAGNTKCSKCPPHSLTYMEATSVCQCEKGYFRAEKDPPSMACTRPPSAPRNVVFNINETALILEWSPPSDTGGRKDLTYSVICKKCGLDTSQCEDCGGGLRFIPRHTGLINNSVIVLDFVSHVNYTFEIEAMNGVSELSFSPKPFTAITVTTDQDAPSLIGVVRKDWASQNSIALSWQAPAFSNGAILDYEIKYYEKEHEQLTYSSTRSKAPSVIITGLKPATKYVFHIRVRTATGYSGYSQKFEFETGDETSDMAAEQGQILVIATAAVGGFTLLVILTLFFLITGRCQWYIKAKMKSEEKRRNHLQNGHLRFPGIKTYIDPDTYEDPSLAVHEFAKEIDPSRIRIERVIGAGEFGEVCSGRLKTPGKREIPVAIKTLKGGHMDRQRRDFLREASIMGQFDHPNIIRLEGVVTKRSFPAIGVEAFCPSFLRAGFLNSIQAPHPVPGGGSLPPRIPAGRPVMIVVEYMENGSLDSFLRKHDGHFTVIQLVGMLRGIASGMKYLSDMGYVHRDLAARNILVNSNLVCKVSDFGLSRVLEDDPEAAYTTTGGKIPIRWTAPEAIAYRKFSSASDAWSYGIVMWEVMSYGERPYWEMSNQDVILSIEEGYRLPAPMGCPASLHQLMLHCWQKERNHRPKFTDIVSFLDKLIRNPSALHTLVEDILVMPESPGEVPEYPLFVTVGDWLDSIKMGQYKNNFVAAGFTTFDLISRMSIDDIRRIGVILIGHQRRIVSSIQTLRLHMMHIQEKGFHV
In words: kinome screen (33PanQinase). The format is biochemical. The protocol:
The Kinome Screening was performed by Reaction Biology Europe GmbH (http://reactionbiology.com; Freiburg i. Br., Germany).

In the next assay the test system is Jurkat. To be noted: read-out: IC50 (Jurkat); cytotoxicity, 24 h.
In assay [1] the test system is CLL17 chronic lymphocytic leukemia cells. Conditions: read-out: IC50 (CLL17); primary patient cells, 24 h.
Description: For chronic lymphocytic leukemia, mononuclear cells were isolated from peripheral blood using a Ficoll gradient (GE Healthcare). Primary cells from other lymphoma entities were isolated as previously described [80]. All cells were cryopreserved after isolation and thawed as previously described [81].
The resazurin reduction assay, which is also known as AlamarBlue® assay, was used for the determination of cell viability in all cytotoxicity determinations shown in the present work, as previously described [22]. Briefly, cells were seeded at a specific density depending on the incubation time (24 h: 1 × 10^6 cells/ml) in a 96-well plate and incubated with increasing compound concentrations (0.01–30 µM). After the specified treatment time, resazurin (Sigma, #R7017) was added to a final concentration of 40 µM. […] The viability of control cells was set to 100% and all other values were normalized to the control condition, the dose-response curves were then fitted with Prism v7.01 (GraphPad software, La Jolla, CA, USA).
Assay [2] has as its system Ramos cells. In words: BrdU cell proliferation assay. It counts as cell-based, human. Conditions: 24 h, non-lethal doses. As to the method: The Bromodeoxyuridine (BrdU) Cell Proliferation kit from Millipore (#QIA58-1000TEST) was used to measure proliferation of cells. The manufacturer protocol has been optimized as described in the following. 1 × 10^4 cells per well were seeded in a 96-well plate. The cells were pre-incubated with the compounds of interest for 1 h. Following this, the BrdU solution was added and the cells were incubated for a total of 24 h. BrdU is an analog of the nucleoside thymidine and is incorporated into the DNA of dividing cells during replication. Culture medium was removed and cells were fixed and denatured with Fixative/Denaturing solution for 30 min at room temperature. Since suspension cells were used, they had to be centrifuged at 1200 rpm for 5 min after each following step. After, the anti-BrdU-antibody was incubated for 1 h at RT. Cells were washed three times with washing buffer. The secondary antibody, which is coupled to HRP (horseradish peroxidase) was incubated for 30 min at RT. Again, cells were washed three times with washing buffer.
Then, the substrate solution was added, that contained TMB (3,3’,5,5’-Tetramethylbenzidine), which is oxidized by HRP. Oxidation of TMB causes a color change from colorless to blue. The intensity of color change is correlated with the number of bound peroxidases, which depends on the quantity of primary antibodies and therefore on the content of the incorporated BrdU. If the cells are not proliferating, no BrdU is incorporated, resulting in a weak signal.
After 15 min incubation time the stopping reagent was added, causing a pH change and resulting in a color change from blue to yellow. The colored reaction product was quantified at 450 nm using a spectrophotometer. For all measurements, three technical replicates were made. The control was set to 100% proliferation, and the treated cells were normalized to the control. The results were visualized using GraphPad Prism 7.

The subject of assay [3] is Ramos cells. In words: cell cycle analysis (Nicoletti assay). Conditions: 24 h, sublethal dose, with QVD. It counts as cell-based, human. The protocol: DNA content during cell cycle and hypodiploid apoptotic nuclei were measured by the method of Nicoletti et al.. […] Hypodiploid nuclei were measured in logarithmic mode for apoptosis determination. Flow-cytometry analysis was performed on an LSRFortessa^TM (Becton, Dickinson, Heidelberg, Germany) and data analysis was performed using FlowJo_V10 (BD Biosciences).

Description for HPBALL: (§3) The resazurin reduction assay, which is also known as AlamarBlue® assay, was used for the determination of cell viability in all cytotoxicity determinations shown in the present work, as previously described [22]. Briefly, cells were seeded at a specific density depending on the incubation time (24 h: 1 × 10^6 cells/ml) in a 96-well plate and incubated with increasing compound concentrations (0.01–30 µM). After the specified treatment time, resazurin (Sigma, #R7017) was added to a final concentration of 40 µM. […] The viability of control cells was set to 100% and all other values were normalized to the control condition, the dose-response curves were then fitted with Prism v7.01 (GraphPad software, La Jolla, CA, USA). The reduction of resazurin to resorufin is proportional to aerobic respiration; therefore, it is used as a measure for the cell viability and cytotoxicity of a tested compound.
Description for Jurkat: as §3

One may read the IC50 as the concentration that gives 50% inhibition. As for `c1ccc(CNc2cc(-c3c[nH]c4ncccc34)ccn2)cc1` [meriolin 36], at CDK2/cyclin A2, the “inhibition of CDK2/cyclin A2” value is given as “inhibited”. In addition, the “inhibition of CDK9/cyclin T” value on CDK9/cyclin T is recorded as “inhibited”. Moreover, the “inhibition of CDK1/cyclin B1” value at CDK1/cyclin B1 is “inhibited”. Besides, the figures for the half-inhibitory concentration (IC50) (in the assay with HPBALL; in the assay with Jurkat; in [1]) were 3440 nM, 1430 nM and 110 nM, respectively. In addition, the residual kinase activity at EPHA6 (0.3 µM) is recorded as 101 % of control; at EPHA6 (3 µM), 65 % of control. Further, in the assay on Ramos cells [2], the “proliferation (BrdU incorporation)” value is “substantial decrease in proliferation”. Further, in the assay on Ramos cells [3], the “effect on cell cycle phases” value was “only a slight shift to G2 phase”.
`COc1ccnc2[nH]cc(-c3cc(N)nc(N)c3)c12` [meriolin 16]: the “inhibition of CDK2/cyclin A2” value on CDK2/cyclin A2 is “inhibited”. On CDK9/cyclin T, the “inhibition of CDK9/cyclin T” value is recorded as “inhibited”. The “inhibition of CDK1/cyclin B1” value at CDK1/cyclin B1 was “inhibited”. The half-maximal inhibitory concentration (IC50) with HPBALL stood at 20 nM; with Jurkat it was 30 nM; in assay [1], 50 nM. Moreover, the results for the residual kinase activity at EPHA6 (0.03 µM) and on EPHA6 (0.3 µM) were 98 % of control and 105 % of control, respectively. For the same compound, the “proliferation (BrdU incorporation)” value with Ramos cells [2] is on record as “substantial decrease in proliferation”. Besides, the “effect on cell cycle phases” value in the assay on Ramos cells [3] is given as “only a slight shift to G2 phase”.
